According to publication PMC5218480 (PLoS ONE, 2017):

System: MV-4-11 cells
Experiment: Gene expression microarray analysis (Affymetrix PrimeView) and GSEA
Format: cell-based, human
Parameters: RFU PODN (11730768_x_at) / Fold change /veh PODN (11730768_x_at) / RFU LINC00158 (11744669_a_at) / Fold change /veh LINC00158 (11744669_a_at) / RFU DUSP10 (11751237_a_at) / Fold change /veh DUSP10 (11751237_a_at) / RFU ID3 (11757404_x_at) / Fold change /veh ID3 (11757404_x_at) / RFU PLEKHG5 (11737974_s_at) / Fold change /veh PLEKHG5 (11737974_s_at) / RFU LRRC4B (11730491_at) / Fold change /veh LRRC4B (11730491_at) / RFU GIMAP4 (11747438_a_at) / Fold change /veh GIMAP4 (11747438_a_at) / RFU KRT8 (11758183_x_at) / Fold change /veh KRT8 (11758183_x_at) / RFU CNN1 (11734310_a_at) / Fold change /veh CNN1 (11734310_a_at) / RFU VPS37D (11726825_at) / Fold change /veh VPS37D (11726825_at) / RFU C10orf10 (11716522_x_at) / Fold change /veh C10orf10 (11716522_x_at) / RFU KIR2DL2 /// KIR2DL4 /// KIR2DL5A /// KIR2DL5B /// KIR2DS1 /// KIR2DS2 /// KIR2DS3 /// KIR2DS4 /// KIR3DL3 /// KIR3DL3 /// KIR3DS1 (11738374_at) / Fold change /veh KIR2DL2 /// KIR2DL4 /// KIR2DL5A /// KIR2DL5B /// KIR2DS1 /// KIR2DS2 /// KIR2DS3 /// KIR2DS4 /// KIR3DL3 /// KIR3DL3 /// KIR3DS1 (11738374_at) / RFU C1QL1 (11718748_at) / Fold change /veh C1QL1 (11718748_at) / RFU TMPRSS4 (11747572_a_at) / Fold change /veh TMPRSS4 (11747572_a_at) / RFU HAMP (11756126_x_at) / Fold change /veh HAMP (11756126_x_at) / RFU RNFT2 (11725882_a_at) / Fold change /veh RNFT2 (11725882_a_at) / RFU NR4A2 (11747474_a_at) / Fold change /veh NR4A2 (11747474_a_at) / RFU ABCC12 (11746883_a_at) / Fold change /veh ABCC12 (11746883_a_at) / RFU TMEM136 (11760407_x_at) / Fold change /veh TMEM136 (11760407_x_at) / RFU CLDN22 /// WWC2 (11732394_at) / Fold change /veh CLDN22 /// WWC2 (11732394_at) / RFU HLA-DPB1 (11760878_x_at) / Fold change /veh HLA-DPB1 (11760878_x_at) / RFU SPINT1 (11716480_a_at) / Fold change /veh SPINT1 (11716480_a_at) / RFU GAP43 (11754022_s_at) / Fold change /veh GAP43 (11754022_s_at) / RFU A4GNT (11735810_at) / Fold change /veh A4GNT (11735810_at) / RFU PRB3 (11715151_x_at) / Fold change /veh PRB3 (11715151_x_at) / RFU TUBB4B (11761932_at) / Fold change /veh TUBB4B (11761932_at) / RFU CAPN14 (11732068_a_at) / Fold change /veh CAPN14 (11732068_a_at) / RFU TMCC2 (11721928_a_at) / Fold change /veh TMCC2 (11721928_a_at) / RFU IRGQ (11745062_a_at) / Fold change /veh IRGQ (11745062_a_at) / RFU FAM174B (11720279_a_at) / Fold change /veh FAM174B (11720279_a_at) / RFU TMPRSS4 (11748680_a_at) / Fold change /veh TMPRSS4 (11748680_a_at) / RFU FAM212B (11763350_a_at) / Fold change /veh FAM212B (11763350_a_at) / RFU PLEKHG5 (11743358_a_at) / Fold change /veh PLEKHG5 (11743358_a_at) / RFU ZSCAN30 (11745921_a_at) / Fold change /veh ZSCAN30 (11745921_a_at) / RFU CMKLR1 (11741424_a_at) / Fold change /veh CMKLR1 (11741424_a_at) / RFU LOC101060620 /// MAPK8IP1 (11723275_at) / Fold change /veh LOC101060620 /// MAPK8IP1 (11723275_at) / RFU SPTSSB (11747773_x_at) / Fold change /veh SPTSSB (11747773_x_at) / RFU PRSS12 (11739890_at) / Fold change /veh PRSS12 (11739890_at) / RFU BIN1 (11741810_x_at) / Fold change /veh BIN1 (11741810_x_at) / RFU WNT11 (11732464_a_at) / Fold change /veh WNT11 (11732464_a_at) / RFU C10orf10 (11716521_a_at) / Fold change /veh C10orf10 (11716521_a_at) / RFU C5orf56 (11738089_at) / Fold change /veh C5orf56 (11738089_at) / RFU CYB561 (11721691_x_at) / Fold change /veh CYB561 (11721691_x_at) / RFU ANKRD19P (11752326_a_at) / Fold change /veh ANKRD19P (11752326_a_at) / RFU OR2T12 /// OR2T33 /// OR2T8 (11738714_s_at) / Fold change /veh OR2T12 /// OR2T33 /// OR2T8 (11738714_s_at) / RFU VCAN (11748164_a_at) / Fold change /veh VCAN (11748164_a_at) / RFU JSRP1 (11732532_at) / Fold change /veh JSRP1 (11732532_at) / RFU KRTAP10-11 (11738290_x_at) / Fold change /veh KRTAP10-11 (11738290_x_at) / RFU MYO3A (11730013_a_at) / Fold change /veh MYO3A (11730013_a_at) / RFU EBF3 (11725865_a_at) / Fold change /veh EBF3 (11725865_a_at) / RFU CAMK2N1 (11719241_x_at) / Fold change /veh CAMK2N1 (11719241_x_at) / RFU C5orf56 (11738088_a_at) / Fold change /veh C5orf56 (11738088_a_at) / RFU OLFML3 (11715873_a_at) / Fold change /veh OLFML3 (11715873_a_at) / RFU LOC100653217 /// NTM (11731650_a_at) / Fold change /veh LOC100653217 /// NTM (11731650_a_at) / RFU MAPK11 (11762145_a_at) / Fold change /veh MAPK11 (11762145_a_at) / RFU FIZ1 (11724087_x_at) / Fold change /veh FIZ1 (11724087_x_at) / RFU OASL (11726364_x_at) / Fold change /veh OASL (11726364_x_at) / RFU SOX15 (11748057_x_at) / Fold change /veh SOX15 (11748057_x_at) / RFU CD79A (11719716_a_at) / Fold change /veh CD79A (11719716_a_at) / RFU HIST1H1D (11736915_at) / Fold change /veh HIST1H1D (11736915_at) / RFU CASKIN2 (11723855_a_at) / Fold change /veh CASKIN2 (11723855_a_at) / RFU LOC730098 (11760151_x_at) / Fold change /veh LOC730098 (11760151_x_at) / RFU OR4N2 (11742367_at) / Fold change /veh OR4N2 (11742367_at) / RFU PRRT2 (11749266_a_at) / Fold change /veh PRRT2 (11749266_a_at) / RFU SNX32 (11753110_a_at) / Fold change /veh SNX32 (11753110_a_at) / RFU CDHR5 (11726645_a_at) / Fold change /veh CDHR5 (11726645_a_at) / RFU RCAN1 (11760418_a_at) / Fold change /veh RCAN1 (11760418_a_at) / RFU FAM167A (11723789_a_at) / Fold change /veh FAM167A (11723789_a_at) / RFU FAM26E (11764081_at) / Fold change /veh FAM26E (11764081_at) / RFU ISYNA1 (11749810_s_at) / Fold change /veh ISYNA1 (11749810_s_at) / RFU ACY1 (11761880_at) / Fold change /veh ACY1 (11761880_at) / RFU 11764098_at / Fold change /veh 11764098_at / RFU SAMD14 (11745864_x_at) / Fold change /veh SAMD14 (11745864_x_at) / RFU NPB (11741838_a_at) / Fold change /veh NPB (11741838_a_at) / RFU TMPRSS6 (11731388_a_at) / Fold change /veh TMPRSS6 (11731388_a_at) / RFU KRTAP10-2 (11738614_at) / Fold change /veh KRTAP10-2 (11738614_at) / RFU ARHGAP8 /// PRR5-ARHGAP8 (11727945_x_at) / Fold change /veh ARHGAP8 /// PRR5-ARHGAP8 (11727945_x_at) / RFU KRTAP5-7 /// NADSYN1 (11734609_at) / Fold change /veh KRTAP5-7 /// NADSYN1 (11734609_at) / RFU RASL12 (11751679_a_at) / Fold change /veh RASL12 (11751679_a_at) / RFU CDKN2B (11736163_a_at) / Fold change /veh CDKN2B (11736163_a_at) / RFU PRF1 (11729649_at) / Fold change /veh PRF1 (11729649_at) / RFU, ZNF638 /// ZNF638-IT1 / Fold change vs veh, ZNF638 /// ZNF638-IT1 / RFU, PANK3 / Fold change vs veh, PANK3 / RFU, SH3YL1 / Fold change vs veh, SH3YL1 / RFU, ZEB2 / Fold change vs veh, ZEB2 / RFU, NRIP1 / Fold change vs veh, NRIP1 / RFU, PTTG1IP / Fold change vs veh, PTTG1IP / RFU, CAPN2 / Fold change vs veh, CAPN2 / RFU, MED14 / Fold change vs veh, MED14 / RFU, SNORA58 / Fold change vs veh, SNORA58 / RFU, C1orf63 / Fold change vs veh, C1orf63 / RFU, LRRFIP1 / Fold change vs veh, LRRFIP1 / RFU, NDUFAF7 / Fold change vs veh, NDUFAF7 / RFU, SLC12A2 / Fold change vs veh, SLC12A2 / RFU, IBTK / Fold change vs veh, IBTK / RFU, ESF1 / Fold change vs veh, ESF1 / Fold change vs veh, TMEM50B / RFU, TAOK1 / Fold change vs veh, TAOK1 / RFU, ACBD3 / Fold change vs veh, ACBD3 / RFU, TMA16 / Fold change vs veh, TMA16 / RFU, RWDD3 / Fold change vs veh, RWDD3 / RFU, BCAT1 / Fold change vs veh, BCAT1 / RFU, EDEM3 / Fold change vs veh, EDEM3 / RFU, TMEM33 / Fold change vs veh, TMEM33 / RFU, WDR75 / Fold change vs veh, WDR75 / RFU, AHCTF1 / Fold change vs veh, AHCTF1 / RFU, TFRC / Fold change vs veh, TFRC / RFU, ZDHHC17 / Fold change vs veh, ZDHHC17 / RFU, NOM1 / Fold change vs veh, NOM1 / RFU, ARL8B / Fold change vs veh, ARL8B / RFU, ZBTB11 / Fold change vs veh, ZBTB11 / RFU, TAMM41 / Fold change vs veh, TAMM41 / RFU, KIAA1704 /// LOC100996395 / Fold change vs veh, KIAA1704 /// LOC100996395 / RFU, ING1 / Fold change vs veh, ING1 / RFU, TRMT61B / Fold change vs veh, TRMT61B / RFU, FUBP3 / Fold change vs veh, FUBP3 / RFU, TP53 / Fold change vs veh, TP53 / RFU, TNKS2 / Fold change vs veh, TNKS2 / RFU, ZFP14 / Fold change vs veh, ZFP14 / RFU, ACTR2 / Fold change vs veh, ACTR2 / RFU, PPP3R1 / Fold change vs veh, PPP3R1 / RFU, PIK3R1 / Fold change vs veh, PIK3R1 / RFU, HNRNPA1 / Fold change vs veh, HNRNPA1 / RFU, RNF170 / Fold change vs veh, RNF170 / RFU, ZNF28 / Fold change vs veh, ZNF28 / RFU, RNGTT / Fold change vs veh, RNGTT / RFU, OGT / Fold change vs veh, OGT / RFU, BRD1 / Fold change vs veh, BRD1 / RFU, MARS / Fold change vs veh, MARS / RFU, ZNF655 / Fold change vs veh, ZNF655 / RFU, FAHD1 / Fold change vs veh, FAHD1 / RFU, BDP1 / Fold change vs veh, BDP1 / RFU, LRRCC1 / Fold change vs veh, LRRCC1 / RFU, ARID1A / Fold change vs veh, ARID1A / RFU, ZNF146 / Fold change vs veh, ZNF146 / RFU, ZNF330 / Fold change vs veh, ZNF330 / RFU, GPN3 / Fold change vs veh, GPN3 / RFU, C9orf123 / Fold change vs veh, C9orf123 / RFU, N4BP2L2 / Fold change vs veh, N4BP2L2 / RFU, ARFIP1 / Fold change vs veh, ARFIP1 / RFU, FAM179B / Fold change vs veh, FAM179B / RFU, BCL10 / Fold change vs veh, BCL10 / RFU, UHRF1BP1L / Fold change vs veh, UHRF1BP1L / RFU, BET1 / Fold change vs veh, BET1 / RFU, CNOT2 / Fold change vs veh, CNOT2 / RFU, ZNF268 / Fold change vs veh, ZNF268 / Fold change vs veh, ZNF507 / RFU, DGCR2 / Fold change vs veh, DGCR2 / RFU, WDSUB1 / Fold change vs veh, WDSUB1 / Fold change vs veh, HSP90B1 /// MIR3652 / RFU, ADSS / Fold change vs veh, ADSS / RFU, GK / Fold change vs veh, GK / RFU, ZNF148 / Fold change vs veh, ZNF148 / RFU, TAF9 / Fold change vs veh, TAF9 / RFU, SLC1A5 / Fold change vs veh, SLC1A5 / RFU, SLMO2 / Fold change vs veh, SLMO2 / RFU, ABCC4 / Fold change vs veh, ABCC4 / RFU, LOC101060439 /// RAP1B / Fold change vs veh, LOC101060439 /// RAP1B / RFU, RFX7 / Fold change vs veh, RFX7 / RFU, GTPBP10 / Fold change vs veh, GTPBP10 / RFU, CNEP1R1 / Fold change vs veh, CNEP1R1 / RFU, BIVM-ERCC5 /// ERCC5 / Fold change vs veh, BIVM-ERCC5 /// ERCC5 / RFU, ILF3 / Fold change vs veh, ILF3 / RFU 11762660_at / Fold change /veh 11762660_at / RFU VCAN (11757783_s_at) / Fold change /veh VCAN (11757783_s_at) / RFU DDX43 (11728927_at) / Fold change /veh DDX43 (11728927_at) / RFU KRT8 (11758188_x_at) / Fold change /veh KRT8 (11758188_x_at) / RFU NKD1 (11759106_at) / Fold change /veh NKD1 (11759106_at) / RFU SRD5A1 (11742802_a_at) / Fold change /veh SRD5A1 (11742802_a_at) / RFU TPSAB1 /// TPSB2 (11721975_s_at) / Fold change /veh TPSAB1 /// TPSB2 (11721975_s_at) / RFU GSTM3 (11746129_a_at) / Fold change /veh GSTM3 (11746129_a_at) / RFU IL23R (11737362_x_at) / Fold change /veh IL23R (11737362_x_at) / RFU TMEM51 (11727254_a_at) / Fold change /veh TMEM51 (11727254_a_at) / RFU PIWIL2 (11732686_x_at) / Fold change /veh PIWIL2 (11732686_x_at) / RFU ORM1 (11744905_x_at) / Fold change /veh ORM1 (11744905_x_at) / RFU CCDC152 (11743942_at) / Fold change /veh CCDC152 (11743942_at) / RFU ECM1 (11717891_a_at) / Fold change /veh ECM1 (11717891_a_at) / RFU IL23R (11748794_a_at) / Fold change /veh IL23R (11748794_a_at) / RFU TNFAIP8L3 (11732012_x_at) / Fold change /veh TNFAIP8L3 (11732012_x_at) / RFU MBOAT4 (11741988_at) / Fold change /veh MBOAT4 (11741988_at) / RFU 11764193_at / Fold change /veh 11764193_at / RFU TMEM53 (11763286_at) / Fold change /veh TMEM53 (11763286_at) / RFU MAGEB2 (11727129_at) / Fold change /veh MAGEB2 (11727129_at) / RFU TMEM200A (11744735_a_at) / Fold change /veh TMEM200A (11744735_a_at) / RFU CCDC152 (11751479_a_at) / Fold change /veh CCDC152 (11751479_a_at) / RFU FAM211A (11726209_a_at) / Fold change /veh FAM211A (11726209_a_at) / RFU RGS16 (11746705_a_at) / Fold change /veh RGS16 (11746705_a_at) / RFU VCAN (11755009_s_at) / Fold change /veh VCAN (11755009_s_at) / RFU RHOB (11743442_s_at) / Fold change /veh RHOB (11743442_s_at) / RFU RGS16 (11720943_a_at) / Fold change /veh RGS16 (11720943_a_at) / RFU RGS16 (11720944_at) / Fold change /veh RGS16 (11720944_at) / RFU, VPS4B / Fold change vs veh, VPS4B / RFU, CREB1 / Fold change vs veh, CREB1 / RFU, DNAJC13 / Fold change vs veh, DNAJC13 / RFU, GNAQ / Fold change vs veh, GNAQ / RFU, CDK5R1 / Fold change vs veh, CDK5R1 / RFU, ZRANB3 / Fold change vs veh, ZRANB3 / RFU, CUL4A / Fold change vs veh, CUL4A / RFU, CCNY / Fold change vs veh, CCNY / RFU, UFL1 / Fold change vs veh, UFL1 / RFU, COG3 / Fold change vs veh, COG3 / RFU, DIAPH2 / Fold change vs veh, DIAPH2 / RFU, SKA2 / Fold change vs veh, SKA2 / RFU, AFF3 / Fold change vs veh, AFF3 / RFU, LMF1 / Fold change vs veh, LMF1 / RFU, IPO11 / Fold change vs veh, IPO11 / RFU, DFFB / Fold change vs veh, DFFB / RFU, FOXP1 / Fold change vs veh, FOXP1 / RFU, CARD8 / Fold change vs veh, CARD8 / RFU, STRN3 / Fold change vs veh, STRN3 / RFU, ADK / Fold change vs veh, ADK / RFU, RASSF2 / Fold change vs veh, RASSF2 / RFU, WIPF1 / Fold change vs veh, WIPF1 / RFU, LARP1B / Fold change vs veh, LARP1B / RFU, RASA1 / Fold change vs veh, RASA1 / RFU, RB1 / Fold change vs veh, RB1 / RFU, PPFIA1 / Fold change vs veh, PPFIA1 / RFU, MAT2A / Fold change vs veh, MAT2A / RFU, CCT5 / Fold change vs veh, CCT5 / RFU, WDR92 / Fold change vs veh, WDR92 / RFU, CUX1 / Fold change vs veh, CUX1 / RFU, TTC7A / Fold change vs veh, TTC7A / RFU, TMEM135 / Fold change vs veh, TMEM135 / RFU, DEPTOR / Fold change vs veh, DEPTOR / RFU, CPM / Fold change vs veh, CPM / RFU, DNAJB6 / Fold change vs veh, DNAJB6 / RFU, CACNA2D3 / Fold change vs veh, CACNA2D3 / RFU, DTX4 / Fold change vs veh, DTX4 / RFU, TFCP2 / Fold change vs veh, TFCP2 / RFU, GMCL1 /// GMCL1P1 / Fold change vs veh, GMCL1 /// GMCL1P1 / RFU, AEBP2 / Fold change vs veh, AEBP2 / RFU, SNHG1 /// SNORD22 /// SNORD25 /// SNORD26 /// SNORD27 /// SNORD28 /// SNORD29 /// SNORD31 / Fold change vs veh, SNHG1 /// SNORD22 /// SNORD25 /// SNORD26 /// SNORD27 /// SNORD28 /// SNORD29 /// SNORD31 / Fold change (Aza/veh), C12orf56 (ProbeSet 11735607_a_at) / Fold change (ACY-1035/veh), C12orf56 (ProbeSet 11735607_a_at) / Fold change (Aza/veh), FGFR1OP (ProbeSet 11751329_s_at) / Fold change (ACY-1035/veh), FGFR1OP (ProbeSet 11751329_s_at) / Fold change (Aza/veh), VPS36 (ProbeSet 11739960_a_at) / Fold change (ACY-1035/veh), VPS36 (ProbeSet 11739960_a_at) / RFU SYPL1 (11715823_x_at) / Fold change /veh SYPL1 (11715823_x_at) / RFU IGFBP7 (11715501_s_at) / Fold change /veh IGFBP7 (11715501_s_at) / RFU REEP3 (11722064_at) / Fold change /veh REEP3 (11722064_at) / RFU IGLL1 (11728026_x_at) / Fold change /veh IGLL1 (11728026_x_at): dose or concentration left out as unconfirmed
Settings: ProbeSet 11727827_x_at; LIST B

SMILES: Nc1ccc(-c2cccs2)cc1NC(=O)c1ccc2c(c1)cc(C1CC1)n2CCN1CCOCC1 [ACY-1035]
- Fold change vs veh, NDUFAF7: 1.01
